Earlier results as cited in patent US20240383928A1, “PRODUCTION OF DIORGANOTIN DIHALIDES” (priority 2021, published 2024).

Test system: mice
Conditions: intraperitoneal injection

Compound | LD50 (time not stated, all animals that survived for 25 minutes recovered) [mg/kg] | 2-hr. LD50 [mg/kg] | 24-hr. LD50 [mg/kg]
CC[N+](CC)(CC)CC.[Cl-] [N(C2H5)4Cl] | 60 |  | 
C[CH2][Sn]([CH2]C)([CH2]C)[CH2]C [Sn(C2H5)4] |  | 660 | 130
[CH3][Sn]([CH3])([CH3])[CH3] [Sn(CH3)4, tetramethyl tin] |  | 140 | 18
